According to ChEMBL document CHEMBL1131612, “6-Amino-2-(4-fluorophenyl)-4-methoxy-3- (4-pyridyl)-1H-pyrrolo[2, 3-b]pyridine (RWJ 68354): a potent and selective p38 kinase inhibitor” (J Med Chem, 1998):

What was measured:
PBMC [1] = assay: cells; details: Homo sapiens
Description: Inhibition of LPS-stimulated TH+NF-alphs production by human peripheral blood mononuclear cells (PBMCs)

[2] = biological target: Proto-oncogene tyrosine-protein kinase Src (Homo sapiens) (UniProt P12931); assay: Inhibition of c-Src tyrosine kinase at 5 uM
[3] = biological target: cAMP-dependent protein kinase (PKA) (Homo sapiens) (UniProt P22694+P17612+P22612); assay: Inhibition of Protein kinase A at 5 uM; format: protein assay
[4] = Percent inhibition of LPS-stimulated TNF-alpha release in fasted BALB/cJ mice at 25 mg/kg; format: functional; details: Mus musculus
[5] = Percent inhibition of LPS-stimulated TNF-alpha release in fasted BALB/cJ mice at 10 mg/kg; format: functional; details: Mus musculus
[6] = biological target: Mitogen-activated protein kinase 1 (Homo sapiens) (UniProt P28482); assay: Inhibition of Mitogen-activated protein kinase 1 (ERK-2 enzyme) at 10 uM
animal or person [7] = details: Mus musculus, read-out: Inhibition
[8] = biological target: T1, Prostaglandin G/H synthase 1 (Homo sapiens, UniProt P23219); assay: Inhibition of Prostaglandin G/H synthase 1 at 5 uM (Inactive)
animal or person [9] = details: Mus musculus, read-out: Inhibition; remark: listed apart in the source
PBMC [10] = assay: cells; format: functional, cell-based; details: Homo sapiens
[11] = biological target: T1, Prostaglandin G/H synthase 1; assay: Inhibition of Prostaglandin G/H synthase 1 at 5 uM

Proto-oncogene tyrosine-protein kinase Src (Homo sapiens), sequence (P12931 2-536 limits assumed): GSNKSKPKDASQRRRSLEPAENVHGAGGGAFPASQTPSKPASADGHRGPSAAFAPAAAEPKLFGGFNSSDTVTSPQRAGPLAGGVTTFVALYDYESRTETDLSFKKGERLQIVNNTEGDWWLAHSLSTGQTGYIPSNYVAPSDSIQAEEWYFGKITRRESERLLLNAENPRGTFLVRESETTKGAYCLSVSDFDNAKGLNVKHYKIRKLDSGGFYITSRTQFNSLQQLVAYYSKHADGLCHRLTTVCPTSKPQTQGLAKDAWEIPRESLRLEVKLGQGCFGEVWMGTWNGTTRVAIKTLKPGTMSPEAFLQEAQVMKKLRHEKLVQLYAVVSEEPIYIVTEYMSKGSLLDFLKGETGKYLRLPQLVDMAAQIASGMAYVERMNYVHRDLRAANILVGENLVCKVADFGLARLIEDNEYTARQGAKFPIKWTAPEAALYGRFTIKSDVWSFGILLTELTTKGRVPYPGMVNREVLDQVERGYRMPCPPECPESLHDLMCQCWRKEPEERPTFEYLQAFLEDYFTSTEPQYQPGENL
T1 sequence (P23219 whole entry): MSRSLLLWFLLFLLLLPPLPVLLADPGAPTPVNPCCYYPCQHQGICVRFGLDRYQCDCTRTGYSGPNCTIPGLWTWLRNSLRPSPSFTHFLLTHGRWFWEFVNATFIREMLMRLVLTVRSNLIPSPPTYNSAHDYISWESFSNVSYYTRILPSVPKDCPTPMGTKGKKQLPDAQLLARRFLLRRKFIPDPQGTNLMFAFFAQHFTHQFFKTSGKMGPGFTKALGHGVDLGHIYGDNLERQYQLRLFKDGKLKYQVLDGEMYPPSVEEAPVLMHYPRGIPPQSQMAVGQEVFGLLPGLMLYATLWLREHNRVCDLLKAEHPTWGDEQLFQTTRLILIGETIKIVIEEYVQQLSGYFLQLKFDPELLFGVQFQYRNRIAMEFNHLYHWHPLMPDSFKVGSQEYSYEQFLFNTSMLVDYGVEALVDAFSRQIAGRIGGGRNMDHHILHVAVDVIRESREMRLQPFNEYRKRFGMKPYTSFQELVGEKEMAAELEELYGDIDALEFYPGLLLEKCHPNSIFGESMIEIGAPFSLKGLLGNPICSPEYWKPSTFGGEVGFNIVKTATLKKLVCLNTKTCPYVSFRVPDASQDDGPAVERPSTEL
Mitogen-activated protein kinase 1 (Homo sapiens), sequence (P28482 whole entry): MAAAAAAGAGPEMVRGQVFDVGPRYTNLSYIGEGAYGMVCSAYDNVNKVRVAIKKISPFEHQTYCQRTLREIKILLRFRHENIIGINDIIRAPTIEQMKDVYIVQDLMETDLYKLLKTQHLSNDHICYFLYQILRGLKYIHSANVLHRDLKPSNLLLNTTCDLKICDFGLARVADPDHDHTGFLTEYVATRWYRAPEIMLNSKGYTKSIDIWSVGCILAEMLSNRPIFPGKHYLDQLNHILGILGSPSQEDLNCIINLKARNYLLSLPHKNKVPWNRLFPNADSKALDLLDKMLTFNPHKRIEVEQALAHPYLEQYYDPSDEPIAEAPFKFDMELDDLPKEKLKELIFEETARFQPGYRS

| SMILES | IC50 (PBMC [1]) | inhibition [2] | inhibition [3] | inhibition in vivo at 25 mg/kg [4] | inhibition in vivo at 10 mg/kg [5] | inhibition [6] | inhibition in vivo at 10 mg/kg (animal or person [7]) | IC50 [8] | inhibition in vivo at 25 mg/kg (animal or person [9]) | IC50 (PBMC [10]) | IC50 [11] |
| --- | --- | --- | --- | --- | --- | --- | --- | --- | --- | --- | --- |
| Nc1cc(OCCCc2ccccc2)c2c(-c3ccncc3)c(-c3ccc(F)cc3)[nH]c2n1 | 9 nM | 3% | 0% |  |  |  |  |  |  |  |  |
| COc1cccc(COc2cc(N)[nH]c3nc(-c4ccc(F)cc4)c(-c4ccncc4)c2-3)c1 | 1.5 nM | 58% | 0% |  |  |  |  |  |  |  |  |
| C[S+]([O-])c1ccc(-c2nc(-c3ccc(F)cc3)c(-c3ccncc3)[nH]2)cc1 (stereo not drawn) [SB-203580] |  | 54% | 0% | 83% | 33% | 22% |  |  |  |  |  |
| COc1cc(N)[nH]c2nc(-c3ccc(F)cc3)c(-c3ccncc3)c1-2 |  | 43% | 0% |  |  | 23% | 85% | Not Active | 99% |  |  |
| Nc1ccc2c(-c3ccncc3)c(-c3ccc(F)cc3)[nH]c2n1 | 37 nM | 63% | 16% | 98% | 73% | 0% |  | Not Active |  | 450 nM |  |
| CCCCOc1cc(N)[nH]c2nc(-c3ccc(F)cc3)c(-c3ccncc3)c1-2 | 4 nM | 18% | 0% | 71% | 27% |  |  | Not Active |  |  |  |
| Nc1cc(OCc2ccccc2)c2c(-c3ccncc3)c(-c3ccc(F)cc3)[nH]c2n1 | 0.91 nM | 19% | 0% | 86% | 11% |  |  | Not Active |  |  |  |
| C[S+]([O-])c1ccc(-c2nc(-c3ccncc3)c(-c3ccc(F)cc3)[nH]2)cc1 (stereo not drawn) [SB-203580] |  |  |  |  |  |  |  |  |  |  | > 5000 nM |
